# Experiments:
# MT4 [1] = assay: Inhibitory concentration against HIV LAI in MT-4 cells when tested at a range of 0.001-10 uM concentration; Inactive; assay type: functional, cell-based, Homo sapiens
# MT2 [2] = assay: Inhibitory concentration against HIV LAI in MT-2 cells when tested at a range of 0.001-10 uM concentration; Inactive; assay type: functional, cell-based, Homo sapiens
# MT4 [3] = assay: Inhibitory concentration of compound against HIV LAI in MT-4 cells when tested at a range of 0.001-10 uM concentration; assay type: functional, cell-based; settings: Homo sapiens
# MT2 [4] = assay: Inhibitory concentration of compound against HIV LAI in MT-2 cells when tested at a range of 0.001-10 uM concentration; assay type: functional, cell-based; settings: Homo sapiens
Structure (SMILES),IC50 (MT4 [1]),IC50 (MT2 [2]),IC50 (MT4 [3]),IC50 (MT2 [4])
C#C[C@@]1(CO)CCC(n2ccc(N)nc2=O)O1 (some centres undefined),Not Active,Not Active,–,–
CC(C)c1nc(CN(C)C(=O)N[C@H](C(=O)N[C@@H](Cc2ccccc2)C[C@H](O)[C@H](Cc2ccccc2)NC(=O)OCc2cncs2)C(C)C)cs1 [RITONAVIR],–,–,0.01 µM,0.01 µM
